Experimental data: patent US20100087547A1, “Use of a Blood-Flow Decrease Preventing Agent in Conjunction With Insufflating Gas” (priority 2001, published 2010)

Key:
fetal PO2 = assay: Fetal PO2 during laparoscopic evaluation of a pregnant female (Example II); assay type: in vivo, human; details: 32 weeks pregnant female, 100 ppm added to carbon dioxide insufflating gas; fetal PO2 before addition 7 mmHg, electrode on the head
Protocol: A person, 32 weeks pregnant, undergoes laparoscopic evaluation for right lower quadrant pain. Thirty minutes into the procedure, fetal PO2, measured by an electrode placed on the head, is 7 mmHg. 100 ppm ethyl nitrite is added to the carbon dioxide insufflating gas, and the fetal PO2 increases to 25 mm Hg.

blood-flow in liver = assay: Liver blood-flow by laser Doppler flow method in anesthetized pigs during and after carbon dioxide insufflation (Example I); assay type: in vivo; details: adult pigs
Protocol: Ten adult pigs were anesthetized at time zero using halothane anesthetic. A small cut was made in the abdomen to allow access inside the peritoneum. In the case of one group of five pigs, denoted group A, an insufflating needle was inserted, and starting at time 1 hour and 48 minutes, an insufflating gas consisting of carbon dioxide was delivered into the abdominal cavity to standard operating pressure (of 15 mm Hg) and the insufflating gas was maintained in the abdominal cavity for 1 hour whereupon the insufflating gas was removed by suction. In the case of another group of five pigs, denoted group B, an insufflating needle was inserted, and starting at time 1 hour and 35 minutes, an insufflating gas consisting of carbon dioxide and 100 ppm ethyl nitrite was delivered to the abdominal cavity to standard operating pressure and the insufflating gas was maintained in the abdominal cavity for about 1⅕ hour whereupon the insufflating gas was removed by suction. In both cases, blood-flow in liver was monitored by a laser Doppler flow method (a standard method where […] are projected at flowing blood and bounce back) whereby blood-flow is determined starting at time 5 minutes after time zero in the case of group A, and starting at about time 20 minutes after time zero in the case of group B and continuing until 2 hours after insufflating gas was removed. In FIGS. 1 and 2, the Doppler Flow Units are arbitrary units. In FIG. 3, the term “Relative Flow” means relative blood-flow in liver compared to baseline. […] FIG. 1 illustrates that carbon dioxide pneumoperitoneum produces a decrease in blood-flow to the liver, which was sustained even after the procedure was completed.

[1] = system: abdominal pain suggestive of intestinal ischemia; assay: Laparoscopic cholecystectomy, abdominal pain suggestive of intestinal ischemia (Example III); assay type: in vivo, human; details: person, 100 ppm added to the insufflating gas one hour into the procedure
Text: A person undergoes laparoscopic cholecystectomy.

renal perfusion = assay: Laparoscopy in a person with renal artery stenosis, renal perfusion (Example IV); assay type: in vivo, human; details: 100 ppm added to insufflating gas
Text: A person with renal artery stenosis undergoes laparoscopy appendectomy and diagnostic evaluation of a renal mass.

[2] = system: blood pressure, pulmonary and renal functions; assay: Laparoscopic appendectomy, agent nebulized into the abdominal cavity (Example V); assay type: in vivo, human; details: person, 3 cc of 100 micromolar nebulized into the abdominal cavity
Text: A person undergoes laparoscopic appendectomy. Because of concerns of impaired renal function, pulmonary function and hypertension, nitroglycerin (3 cc of 100 micromolar) is nebulized into the abdominal cavity. Blood pressure increases are prevented and pulmonary and renal functions are kept stable.

SMILES: CCON=O [ethyl nitrite]
- fetal PO2 after addition of agent (fetal PO2): 25 mm Hg
- more blood-flow in liver than with carbon dioxide only, 2 hours post-insufflation (FIG. 3) (blood-flow in liver; 100 ppm ethyl nitrite in carbon dioxide, 2 hours after insufflating gas is removed): about 40%
- more blood-flow in liver than with carbon dioxide only, during insufflation (FIG. 3) (blood-flow in liver; 100 ppm ethyl nitrite in carbon dioxide, average values while insufflating gas is present): about 70%
- effect on carbon dioxide induced decline in liver perfusion (FIG. 2) (blood-flow in liver; group B, carbon dioxide with 100 ppm ethyl nitrite, 15 mm Hg, laser Doppler flow): protects against carbon dioxide induced decline in liver perfusion
- abdominal pain [1]: resolution of abdominal pain
- decrease in blood-flow (renal perfusion) (renal perfusion): protects against decrease in blood-flow

SMILES: O=[N+]([O-])OCC(CO[N+](=O)[O-])O[N+](=O)[O-] [nitroglycerin]
- blood pressure increases [2]: prevented
- pulmonary function [2]: kept stable
- renal function [2]: kept stable
